Measurements from publication PMC4640567, “Cinnamic Acid Bornyl Ester Derivatives from Valeriana wallichii Exhibit Antileishmanial In Vivo Activity in Leishmania major-Infected BALB/c Mice” (PLoS ONE, 2015).

Columns and labels:
[1] = tested on: L. donovani promastigotes; assay: MTT assay, L. donovani (AG83) promastigotes; format: cell-based; conditions: Leishmania donovani, tested at 10, 50, 100 μM, read-out: Cytotoxicity (μM) L. donovani promastigotes (IC50)
Method: L. donovani promastigotes (strain: MHOM/IN/1983/AG83) were obtained from the Indian Institute of Chemical Biology, Kolkata, India. Promastigotes were cultured in Schneider’s insect medium (Sigma-Aldrich Co., St. Louis, USA) as described elsewhere.
Antiparasitic activities of compounds 1 and 2 dissolved in dimethyl sulfoxide (DMSO, E. Merck, India) against L. donovani (AG83) promastigotes were determined by a quantitative colorimetric assay using the 3-(4, 5- dimethylthiazol-2-yl)-2, 5-diphenyl tetrazolium bromide (MTT) (Sisco Research Laboratory, Mumbai, India) test as described elsewhere. The compounds were tested at concentrations of 10 μM, 50 μM, and 100 μM and IC50 values (concentration of compound, which inhibited at least 50% cell metabolic activity) for each compound were determined from respective dose–response curves using Origin 5.0 software (Microcal Software, Inc., Northampton, MA, USA).

L. major = assay: In vivo antileishmanial activity in L. major-infected BALB/c mice
Method: Female BALB/c mice (11 per group; three groups in total) were infected with 2 × 10^5 L. major promastigotes in 30 μL phosphate-buffered saline (PBS) into the right hind footpad under isoflurane inhalation anaesthesia using the UniVet Porta system (Groppler, Deggendorf, Germany). The clinical manifestation of L. major infection was monitored twice a week by determination of the body weight (g) and footpad size (mm) of the infected (iFP) and the non-infected footpad (niFP) serving as negative control. The footpad swelling describes the difference in mm between the iFP and niFP of individual mice. Three weeks post infection (p.i.) the mice were randomly divided into three groups of 11 for different treatment regimens. On day 21, 25, and 28 p.i. the respective groups were either left untreated, treated intraperitoneally (i.p.) with 100 μl of solvent (infected, 50% DMSO/PBS) or 100 μl 50 mg/kg/day of compound 2 in 50% DMSO/PBS. This high dose of compound 2 was chosen to identify its antileishmanial in vivo efficacy in L. major-infected BALB/c mice. The close monitoring of body weight and footpad swelling was continued until the end of experiment. On day 35 p.i. mice were sacrificed by CO2 inhalation and single cell suspensions from the iFP, draining popliteal lymph nodes (pLN) and spleens were obtained. The parasite burden was determined by limiting dilution assays as described previously. It was not necessary to apply any analgesics or anaesthetics during the animal trials.

L. major promastigotes = assay: Diff-Quik staining and transmitted light microscopy, cell morphology; format: cell-based, Leishmania major; conditions: 100 μM
Method: L. major parasites harvested from blood agar cultures were washed twice with Dulbecco’s phosphate-buffered saline (DPBS; Invitrogen, Darmstadt, Germany) and centrifuged at 3.000 × g for 10 min. The pellet was suspended in RPMI 1640 medium at a final concentration of 1 × 10^8 cells/ml. Cells were treated with 1% DMSO, 122.7 μM miltefosine (1-hexadecylphorylcholine; apoptosis inducer), or 100 μM of the tested compounds 1 and 2 in a final volume of 200 μl in 96 well plates. Samples were incubated at 27°C in 5% CO2 for several time points between 30 min and 24 h. Transmitted light microscopic, transmission electron microscopic (TEM), and flow cytometric techniques were used to find phenotypic patterns caused by the treatment with the tested compounds.
After incubation for 30 min, 1 h, 2 h, 4 h, and 24 h in the presence of the tested compounds 1 and 2, promastigotes were harvested and centrifuged in a Cytospin 3 centrifuge (Shandon, Frankfurt, Germany) on microscope slides at 253 × g for 5 min at room temperature (RT). Cytospin preparations of cells were stained using the Differential Quick Stain (Diff-Quik) dye (Medion Diagnostics AG, Duedingen, Switzerland), according to the manufacturers’ protocol with some modifications. Diff-Quik stains the leishmanial nuclei and the kinetoplasts dark purple and the cytoplasm light purple allowing the observation of phenotypic changes within the parasite. Briefly, air-dried cells were fixed by dipping the slides 5 times for 3 seconds in fixative solution. Subsequently the slides were stained with Solution I following Solution II (from Diff-Quik kit) and air-dried between each staining steps. Finally, the samples were rapidly dipped once in ultra-pure water (produced by a TKA purification system apparatus, Niederelbert, Germany) to remove excessive staining solutions. The air-dried cells were analyzed by transmitted light microscopy under a 50× objective on a Nikon ECLIPSE 50i microscope equipped with a digital camera (Nikon, Tokyo, Japan). The images were processed using NIS Elements D software (Nikon).

[2] = 50 mg/kg/day i.p. days 21, 25, 28, day 35 p.i.

SMILES	IC50 [1] [µM]	Side effects in vivo (L. major; 50 mg/kg/day i.p. days 21, 25, 28)	Parasite burden in the spleen (LDA) (L. major; [2])	Reduction of parasite burden within the infected footpads (LDA) (L. major; [2])	Reduction of parasite burden within the popliteal lymph nodes (LDA) (L. major; [2])	Body weight of infected mice (L. major; 50 mg/kg/day i.p. on days 21, 25, 28 p.i., during the treatment regimen)	Footpad swelling (difference between infected and non-infected footpad) (L. major; 50 mg/kg/day i.p. on days 21, 25, 28 p.i., vs untreated or solvent control-treated mice)	Time after which vacuolization and changes in cell morphology were observable (L. major promastigotes)
CC1(C)C2CCC1(C)C(OC(=O)CCc1ccccc1)C2 (single isomer, unassigned; (-)) [Compound 2, (-)-bornyl 3-phenylpropionate]	> 100	did not have any strong side effects	only numerically reduced	~ 100 fold	~ 10.000 fold	not affected	reduced footpad swelling	1 h
CC1(C)C2CCC1(C)C(OC(=O)C=Cc1ccccc1)C2 (single isomer, unassigned; (-)) [Compound 1, (-)-Bornyl cinnamate]	15.6	–	–	–	–	–	–	30 min
